In PMC11369183, “PARP inhibition with rucaparib alone followed by combination with atezolizumab: Phase Ib COUPLET clinical study in advanced gynaecological and triple-negative breast cancers” (British Journal of Cancer, 2024):
Where two headings read alike, the source gives them in different places.

Legend:
[1] = Description: The primary objective was to evaluate the safety and tolerability of the combination by identifying dose-limiting toxicities (DLTs; Supplementary Table 1) that determined the maximum tolerated dose and identifying a potential recommended dose and schedule for subsequent assessments. Safety endpoints included the incidence, nature, and severity of adverse events (AEs) and DLTs according to National Cancer Institute Common Terminology Criteria for Adverse Events version 4.03. Secondary efficacy endpoints comprised objective response rate (ORR) according to Response Evaluation Criteria in Solid Tumours (RECIST) version 1.1, duration of response, progression-free survival (PFS) according to RECIST version 1.1, and overall survival (OS). The PK objective was to determine the PK of rucaparib and atezolizumab combination therapy in plasma and serum, with pre-specified parameters including steady-state maximum concentration observed (Cmax), time to maximum concentration (Tmax), and area under the concentration–time curve (AUC) for rucaparib and serum concentration of atezolizumab in Part 1, and minimum concentration during the dosing interval or trough concentration (Cmin) of rucaparib and serum concentration of atezolizumab in Part 2. The incidence of antidrug antibodies (ADAs) to atezolizumab was an additional secondary endpoint. The study also included pre-specified exploratory biomarker objectives: to evaluate predictive and pharmacodynamic biomarkers of response or resistance to combined rucaparib and atezolizumab therapy in tumour biopsies and blood; and to evaluate additional biomarkers of HRD and novel biomarkers and correlate them with response and/or clinical outcome, including efficacy and safety. No formal statistical analyses were planned.
In Part 1 (dose-finding phase), patients with histologically confirmed ovarian or endometrial cancer who had received at least one prior line of therapy for metastatic disease received varying doses of oral rucaparib (400 mg twice daily in the first cohort, 600 mg twice daily in the second cohort, decreasing to 500 mg in the third cohort if necessary) in combination with a fixed dose of intravenous atezolizumab 1200 mg on Day 1. Cycles were repeated every 21 days and continued until unacceptable toxicity or disease progression if, in the investigator’s opinion, the patient would not derive clinical benefit from continued study treatment. It was planned to enroll ~six to 18 patients in up to three dose cohorts. […] In Part 2 (dose-expansion phase), the recommended Phase II dose was evaluated further for safety, PK, and preliminary activity in two tumour-specific expansion cohorts with an initially targeted enrollment of up to ~50 patients in total. In Cohort 1, eligible patients had platinum-sensitive high-grade serous or grade 3 endometrioid epithelial ovarian, fallopian tube, or primary peritoneal cancer with tumours harbouring a deleterious germline or somatic BRCA mutation (tBRCAmut, Arm A) or a tBRCA-like molecular signature (tBRCA-wild type [wt]/loss of heterozygosity [LOH]high, Arm B). Patients had received one to two prior platinum-containing regimens, with progression >6 months after the last dose of the most recent platinum therapy. In Cohort 2 (Arm C), patients had tBRCAmut or tBRCAwt/LOHhigh TNBC and had received at least one prior line of chemotherapy (without cancer immunotherapy) in the metastatic setting. Part 2 treatment comprised a 21-day run-in period of single-agent rucaparib at the identified recommended rucaparib starting dose (run-in), followed by rucaparib in combination with intravenous atezolizumab 1200 mg on Day 1 (combination). Cycles were repeated every 21 days.

[2] = Atezolizumab serum concentration (sparse PK sampling); format: in vivo
Description: (§1) No formal statistical analyses were planned.

[3] = test system: antidrug antibodies (ADAs) to atezolizumab; experiment: Incidence of antidrug antibodies (ADAs) to atezolizumab; format: in vivo, human; conditions: one of 28 patients evaluable for ADA
Description: as §1

clinical = experiment: clinical; set-up: species or system human; conditions: in vivo; for Cmax: female
Description: as §1

[4] = test system: DNA damage repair signature; experiment: RNA sequencing signature in longitudinal tumour biopsies: DDR; format: in vivo, human; conditions: after the rucaparib run-in
Description: (§2) All patients (Parts 1 and 2) were required to have sufficient archival formalin-fixed paraffin-embedded (FFPE) tumour tissue available for planned analyses. […] A further biopsy at disease progression was optional. Tumour and biomarker characteristics are described according to central review result. However, patients could be enrolled or assigned to a cohort based on local test results, to avoid delaying treatment initiation. […] Patients were ineligible if they had previously received treatment with a PARPi, CD137 agonist, or other ICI (including but not limited to anti-PD-1, anti-PD-L1, and anti-CTLA-4 therapeutic antibodies). […] RNA sequencing reads were first aligned to ribosomal RNA sequences to remove ribosomal reads. The remaining reads were aligned to the human reference genome (National Center for Biotechnology Information Build 38) using Genomic Short-read Nucleotide Alignment Program (GSNAP) version 2013-11-01. To quantify gene expression levels, the number of reads mapped to the exons of each RefSeq gene was calculated using the functionality provided by the R/Bioconductor package GenomicAlignments. For each cohort, raw counts for genes were trimmed mean of M-values (TMM)-normalised based on size factors as calculated with CalcNormFactors in the edgeR package. […]

Apoptosis signature = experiment: RNA sequencing signature in longitudinal tumour biopsies: apoptosis; format: in vivo, human; conditions: during run-in, responding patients
Description: as §2

CD274 (PD-L1 gene) = experiment: RNA sequencing in longitudinal tumour biopsies: CD274; format: in vivo, human; conditions: after rucaparib run-in, responders (not in non-responders)
Description: as §2

[5] = test system: CD8 T-cell activity signature; experiment: RNA sequencing signature in longitudinal tumour biopsies: CD8 T-cell activity; format: in vivo, human; conditions: during rucaparib run-in, in four of five responders
Description: as §2

cGAS-STING pathway = experiment: RNA sequencing signature in longitudinal tumour biopsies: cGAS-STING; format: in vivo, human; conditions: during rucaparib run-in, in four of five responders
Description: as §2

[6] = test system: ovarian cancer, patients with measurable disease; set-up: method as in PMID 32073956; conditions: olaparib alone; cited from earlier work
[7] = Part 2 TNBC Arm C, n = 5, run-in
[8] = Part 2 ovarian cancer Arms A + B, n = 14, run-in
[9] = Cycle 1 arithmetic mean (CV), sparse PK sampling, Part 2 ovarian cancer Arm B (tBRCAwt/LOHhigh), n = 4

atezolizumab
AE leading to treatment modification/interruption: Atezolizumab ([1]; Part 1 Cohort 1 (rucaparib 400 mg), n = 3): 1 (33) n (%)
AE leading to treatment modification/interruption: Atezolizumab ([1]; Part 1 Cohort 2 (rucaparib 600 mg), n = 6): 1 (17) n (%)
AE leading to treatment modification/interruption: Atezolizumab ([1]; Part 2 TNBC Arm C, n = 5, post run-in): 1 (20) n (%)
AE leading to treatment modification/interruption: Atezolizumab [1, 7]: 0 n (%)
AE leading to treatment modification/interruption: Atezolizumab ([1]; Part 2 ovarian cancer Arms A + B, n = 14, post run-in): 5 (36) n (%)
AE leading to treatment modification/interruption: Atezolizumab [1, 8]: 0 n (%)
Atezolizumab Cmin ([2]; Cycle 1 arithmetic mean (CV), sparse PK sampling, Part 1 Cohort 1, n = 3): (n = 3) 84.3 (32.0) μg/mL
Atezolizumab Cmin ([2]; Cycle 1 arithmetic mean (CV), sparse PK sampling, Part 1 Cohort 2, n = 5): (n = 5) 96.0 (23.8) μg/mL
Atezolizumab Cmin ([2]; Cycle 1 arithmetic mean (CV), sparse PK sampling, Part 2 TNBC Arm C, n = 4): (n = 4) 98.7 (26.3) μg/mL
Atezolizumab Cmin ([2]; Cycle 1 arithmetic mean (CV), sparse PK sampling, Part 2 ovarian cancer Arm A (tBRCAmut), n = 10): (n = 10) 77.2 (22.1) μg/mL
Atezolizumab Cmax [2, 9]: (n = 4) 438 (9.4) μg/mL
Atezolizumab Cmin [2, 9]: (n = 4) 95.7 (17.9) μg/mL
Trough concentrations (Ctrough) ([2]; all trough concentrations exceeded the target concentration for maximal receptor occupancy): > 6000 ng/mL
Inter-patient variability, Cmax ([2]; atezolizumab): 7.0–35.3%
Inter-patient variability, Cmin ([2]; atezolizumab): 17.9–32.0%
Patients positive for treatment-emergent ADAs [3]: 4%

CNCc1ccc(-c2[nH]c3cc(F)cc4c3c2CCNC4=O)cc1 [rucaparib]
Grade 5 AE [1, 7]: 0 n (%)
Grade 5 AE [1, 8]: 0 n (%)
AE leading to treatment modification/interruption: Rucaparib ([1]; human, in vivo): 1 (20) n (%)
AE leading to treatment discontinuation ([1]; human, in vivo, 21 days): 0 n (%)
AE leading to treatment modification/interruption ([1]; human, in vivo, 21 days): 1 (20) n (%)
AE leading to treatment modification/interruption: Rucaparib ([1]; human, in vivo, 21 days): 1 (20) n (%)
Any grade AE ([1]; human, in vivo, 21 days): 5 (100) n (%)
Grade 3/4 AE ([1]; human, in vivo, 21 days): 2 (40) n (%)
Treatment-related AE ([1]; human, in vivo, 21 days): 4 (80) n (%)
Cmax (clinical; human, 400 mg): 2270 ng/mL
Cmax (clinical; human, 600 mg): 3180 ng/mL
Inter-individual variability in exposure, AUC (clinical; human): 21.2–41.6%
Inter-individual variability in exposure, Cmax (clinical; human): 27.4–46.8%
Inter-individual variability in exposure, Cmin (clinical; human): 28.6–88.7%
Tmax (clinical; human): 1.5 to 6 h
Rucaparib AUClast (clinical; human, 400 mg): (n = 2) 15 072 (21.2) h·ng/mL
Rucaparib AUClast (clinical; human, 600 mg): (n = 6) 22 082 (41.6) h·ng/mL
Rucaparib Cmin (clinical; human, 21 days): (n = 5) 1180 (52.5) ng/mL
Dose proportionality of kinetics (clinical): dose-proportional kinetics
Patients with decreased DDR signature ([4]; non-responders (by <10%)): one of four
Patients with decreased DDR signature ([4]; responders): four of five
Patients with increased apoptosis signature expression (Apoptosis signature): three of five
Patients with increased CD274 expression (CD274 (PD-L1 gene)): three of five
Increase in CD8 + T-cell activity [5]: > 50%
Increase in cGAS-STING pathway activation (cGAS-STING pathway): > 100%

O=C(c1cc(Cc2n[nH]c(=O)c3ccccc23)ccc1F)N1CCN(C(=O)C2CC2)CC1 [olaparib]
ORR [6]: 72%
